Test results: patent US20230044943A1, “Pharmaceutical Combinations” (ARRAY BIOPHARMA INC., priority 2016, published 2023)

Tests used:
[1] = system: HT-29 BRAF mutant colorectal cancer (CRC) xenograft tumor model; assay: Anti-tumor efficacy in HT-29 colon cancer xenograft model (study TRP-377-HT29-XEF); assay type: in vivo, female nude mice (Mus musculus); conditions: HT-29 xenograft, day 43 after 21 days of treatment; LGX818 20 mg/kg po qd, MEK162 3.5 mg/kg po bid, cetuximab 20 mg/kg ip 2qw
Experimental: (§1) Animals were weight at dosing day(s) and dose was body weight adjusted, dosing volume was 10 mL/kg. Tumor dimensions and body weights were collected at the time of randomization and twice weekly thereafter for the study duration. The following data were provided after each day of data collection: incidence of mortality, individual and group average body weights, and individual and group average tumor volume.
All data were expressed as mean±standard error of the mean (SEM). […] For all statistical evaluations, the level of significance was set at p<0.05. Significance compared to the vehicle control group is reported unless otherwise stated.

[2] = Tolerability (body weight change, adverse events) in study TRP-377-HT29-XEF; assay type: in vivo; conditions: mean ± SEM, day of maximum change in parentheses; HT-29 tumor-bearing nude mice; LGX818 20 mg/kg po qd, MEK162 3.5 mg/kg po bid, cetuximab 20 mg/kg ip 2qw
Experimental: Animal wellbeing and behavior, including grooming and ambulation were monitored twice daily. General health of mice was monitored and mortality recorded daily. Any moribund animals were sacrificed.
as §1
The % change in body was calculated as (BWcurrent−BWinitial)/(BWinitial)×100. Data is presented as percent body weight change from the day of treatment initiation.

[3] = Stability of test compound dosing formulation; assay type: physicochemical
Experimental: LGX818 was dissolved in 0.5% CMC/0.5% Tween 80.
MEK162 was dissolved in 1% CMC/0.5% Tween 80.

Row | SMILES | T/C (percent tumor volume change treated over control group) [1] [%] | % Maximum BW change (day) [2] | Stability of dosing formulation ([3]; dissolved in 0.5% CMC/0.5% Tween 80, room temperature) | Stability of dosing formulation ([3]; dissolved in 1% CMC/0.5% Tween 80, room temperature)
1 | COC(=O)N[C@@H](C)CNc1nccc(-c2cn(C(C)C)nc2-c2cc(Cl)cc(NS(C)(=O)=O)c2F)n1 [LGX818, methyl N-[(2S)-1-({4-[3-(5-chloro-2-fluoro-3-methanesulfonamidophenyl)-1-(propan-2-yl)-1H-pyrazol-4-yl]pyrimidin-2-yl}amino)propan-2-yl]carbamate] | 42 | −1.6 ± 0.98 (day 29) % | stable for at least one week | 
2 | Cn1cnc2c(F)c(Nc3ccc(Br)cc3F)c(C(=O)NOCCO)cc21 [MEK162, 6-(4-bromo-2-fluorophenylamino)-7-fluoro-3-methyl-3H-benzoimidazole-5-carboxylic acid (2-hydroxyethoxy)-amide] | 28 | −4.1 ± 1.02 (day 29) % |  | stable for at least one week
